# Experiments:
# [1] = F-Ade plasma levels after prodrug injection in tumor-bearing mice; type: in vivo
# Description: Measurements of generation and clearance of circulating F-Ade are made by HPLC for example. Radiolabeled prodrug is obtained from Moravek Biochemicals and injected into mice by the same route and dosage used in efficacy experiments for comparison. Plasma samples are removed at increasing time intervals after injection of prodrug and analyzed by reverse-phase HPLC for parent compound and base. Identification of prodrug and F-Ade is by HPLC as described above.
# When tumors are approximately 200 mg the mice are injected intraperitoneally with 20 mg/kg 3H-F-dAdo. […] Four mice from each group are sacrificed 5, 15, 30, and 60 minutes after injection of F-dAdo, and plasma samples were obtained. The amount of F-Ade is determined in each plasma sample using reverse phase HPLC, as described.
# A similar experiment is conducted with F-araAMP. […] The limit of detection in these experiments with fludarabine is approximately 1 micromolar.
# [2] = Maximally tolerated dose of prodrug in mice; type: in vivo; details: for MTD in mice bearing tumors that express E. coli PNP: versus mice without PNP tumors
# Description: For experiments shown in FIG. 7, sixteen mice are implanted subcutaneously with D54 parental, no PNP expression cells, D54/PNP MuLv, approximately 250 PNP units), or D54/lentiPNP, […] PNP units tumor cells as described for efficacy evaluations. When tumors are approximately 200 mg the mice are injected intraperitoneally with 20 mg/kg 3H-F-dAdo. This dose of F-dAdo is the maximally tolerated dose of F-dAdo when given 5 times daily for 3 consecutive days. Four mice from each group are sacrificed 5, 15, 30, and 60 minutes after injection of F-dAdo, and plasma samples were obtained. The amount of F-Ade is determined in each plasma sample using reverse phase HPLC, as described.
# There is no difference in the F-Ade plasma levels in mice bearing tumors with different levels of E. coli PNP activity, which is consistent with the fact that the MTD of F-dAdo is not reduced in mice bearing tumors that express E. coli PNP.
# A similar experiment is conducted with F-araAMP. […] The limit of detection in these experiments with fludarabine is approximately 1 micromolar. As with F-dAdo, the MTD of F-araAMP is not reduced in mice bearing tumors that express E. coli PNP (either from lentivirus or MuLv), or when given in combination with vectors that express E. coli PNP.
# [3] = Systemic dose response tolerability in mice, human dose by Freireich formula; type: in vivo
# Description: The formula of Freireich et al., Cancer Chemother. Rep., 50:219 244, (1966) can be used to determine the maximum tolerated dose of substrate for a human subject. […] This amount or slightly less should be tolerated in humans with minimal side effects. Furthermore, it is understood that modes of administration that permit the substrate to remain localized at or near the site of the tumor will be effective at lower doses than systemically administered substrates.
# [4] = system: D54 tumors (no PNP expression); assay: Control D54 tumors without PNP expression, drug treatment in vivo
# [5] = cited from earlier work
# D54 human glioma tumors = assay: Ad-PNP injection of D54 tumors followed by F-araAMP; type: in vivo
# Description: D54 human glioma tumors (appx. 250 mg) are injected with an Ad-PNP (2×10^9 PFU, open circles) or saline (closed circles). PNP activity in tumor extracts taken two days after vector administration is approximately 5000 PNP units.
# [6] = system: D54 glioma tumors (MuLv-PNP transduced); assay: D54 tumors expressing E. coli PNP from MuLV, prodrug treatment in vivo
# Description: For example, in one in vivo tumor model, tumors are established in animals by subcutaneous implantation of about 10^7 cells into the axillary region of 6-10 mice. Athymic (or scid) mice are used for models of certain human tumors including cells such as D54, HCT-15, and SR475 head/neck. Syngeneic models are also used. For instance, mouse tumors are established using Colon 26 and G26 glioma cells.
# The resulting solid tumors are measured twice weekly in two dimensions and the mass calculated using the formula for a prolate ellipsoid, [length (mm)×width^2 (mm)]/2=mg, assuming unit density. The data will permit the determination of a tumor volume doubling time, % “no takes”, and % spontaneous regressions.
# PNP expression in MuLv was driven by an SV40 promoter. Mice are given non-absorbable antibiotics in their drinking water prior to treatment with high doses of MeP-dR (e.g. 168 mg/kg/d×3d) to minimize intestinal cleavage of the compound (Bharara, S., et al., 2005, Human Gene Therapy 16:339-347.). Antibiotics are not co:administered for lower doses of MeP-dR, or with less avid substrates such as fludarabine.
# [7] = Safety analysis in flank and CNS tumor models with PNP/F-araAMP; type: in vivo
# [8] = system: D54 glioma tumors (lentivirus PNP); assay: D54 tumors expressing E. coli PNP from lentivirus, prodrug treatment in vivo; design: species or system human
# Description: Syngeneic models are also used.
# D54 glioma tumors are established from a stable cell line expressing E. coli PNP by a strong, CMV-based promoter in a lentiviral vector. FIG. 10 illustrates results. Open Circles: Tumors established from 10% PNP expressing/90% non-expressing tumor cells; PNP activity 9600±1300 units on day 14. Open Triangles: 5% expressing, 95% non-expressing tumor cells; PNP activity 5500±1700 units. Open Squares: Tumors established from 2.5% expressing, 97.5% non-expressing (PNP activity 3600±530 units). Closed symbols depict growth of corresponding (10%, 5%, 2.5%) PNP tumors treated with vehicle (saline control). At least six animals are studied per group. Identically treated animals from each study arm are sacrificed just prior to initiation of MeP-dR therapy (day 14) to measure intratumoral PNP acitivity. […] These experiments test the influence of substantially higher PNP activities on bystander killing in vivo. PNP activity in 300 mg tumors comprised of 100% lentivirus transduced cells is found to be approximately 126,000 PNP units (one unit=1 nmole MeP-dR converted per mg tumor tissue per hour). When the level of E. coli PNP is studied using lentiviral expression, improvements in bystander killing are observed as shown in FIG. 10.
# FIG. 12 depicts a study in which 100% of cells express E. coli PNP using lentivirus. Complete regression and cures of tumors (12 of 12) are obtained with F-araAMP following a 3 day treatment schedule. […] Adjusting the schedule of F-araAMP may also improve bystander killing in vivo (FIG. 16).
# Tumors in which 100% of cells expressed E. coli PNP are treated with a maximally tolerated dose (MTD, 100 mg/kg schedule, open circles) or half the MTD (closed triangles). Six animals are included per treatment group. […] PNP activity in these tumors is 126,000±16,000 units on the day of drug therapy.
# Tumors are established from an inoculum in which 10% of cells expressed E. coli PNP. PNP expression on the day of drug treatment is 14,200±681 PNP units. Anti-tumor efficacy is greater at 100 mg/kg F-araAMP (open circles) than at 50 mg/kg (closed triangles) or 25 mg/kg (open triangles) given over a standard 3 day schedule (q2h×5, q1d×3 days).
# D54 glioma tumors are established with decreasing proportions of PNP expressing cells (and increasing non-expressing (parental) cells). (open symbols: F-araAMP therapy; closed symbols: no prodrug therapy; circles: 2.5%; triangles 5%, and squares 10% PNP transduced cells). F-araAMP was 100 mg/kg q2h×5, q1d×3.
# Tumors comprised of 5% PNP expressing cells and 2 different fludarabine schedules are shown.
# [9] = system: Nc1nc(F)nc2c1ncn2[C@@H]1O[C@H](CO)[C@@H](O)[C@@H]1O; assay: purified protein, by the assay type; details: other: substrate of E. coli PNP
# [10] = system: Nc1nc(F)nc2c1ncn2[C@H]1C[C@H](O)[C@@H](CO)O1; assay: purified protein, by the assay type; type: biochemical; details: other: substrate of E. coli PNP
# Description: (§1) Table 1 describes the kinetic constants underlying these enzymatic reactions with E. coli PNP.
# [11] = system: Cc1ncnc2c1ncn2[C@H]1C[C@H](O)[C@@H](CO)O1; assay: purified protein, by the assay type; type: biochemical; details: other: substrate of E. coli PNP
# Description: as §1
compound,measurement,setting,value
"Nc1nc(F)nc2c1ncn2[C@H]1C[C@H](O)[C@@H](CO)O1 [2-F-dAdo, 2-fluoro-2′-deoxyadenosine]",F-Ade plasma levels in mice bearing tumors with different levels of E. coli PNP activity,"[1]; 20 mg/kg 3H-F-dAdo ip, 5, 15, 30, 60 min, D54 parental, D54/PNP MuLv, D54/lentiPNP tumors",no difference
same,maximally tolerated dose,"[2]; mouse, in vivo, 3 days",20 mg/kg
same,MTD in mice bearing tumors that express E. coli PNP,[2],not reduced
Cc1ncnc2c1ncn2[C@@H]1O[C@H]([C@H](C)O)[C@@H](O)[C@H]1O [5′-methyl(talo)MeP-R],human dosage determined by formula of Freireich,"[3]; 200 mg/kg times 3, from mouse data",600 mg/m^2
same,tolerability,"[3]; mice, systemic, 200 mg per kg per day for 3 days (3 doses total)",well tolerated
O=NN(CCCl)C(=O)NCCCl [BCNU],activity against D54 tumors,[4]; at maximally tolerated doses,minimal activity
"Nc1nc(F)nc2c1ncn2[C@@H]1O[C@H](CO)[C@@H](O)[C@@H]1O [F-araA, 9-(beta-D-arabinofuranosyl)-2-fluoroadenine]",circulating half life,[5]; in vivo,50 min
same,peak levels compared with MeP-dR,[5]; in vivo,significantly higher
Nc1nc(F)nc2c1ncn2[C@@H]1O[C@H](COP(=O)(O)O)[C@@H](O)[C@@H]1O [F-araAMP],effect on control D54 tumors,"[4]; no PNP expression, GFP control transgene, standard 3 day schedule",no effect
same,F-Ade in plasma of mice bearing tumors expressing E. coli PNP,"[1]; 100 mg/kg F-araAMP, limit of detection approximately 1 micromolar",no F-Ade is detected
same,prodrug in plasma,[5]; 4 hours after injection of F-araAMP,very little prodrug in plasma
same,anti-tumor effect together with Ad-PNP,"D54 human glioma tumors; Ad-PNP 2x10^9 PFU, tumors appx. 250 mg, p<0.002 vs virus alone or no treatment",slowing of tumor growth
same,toxicity in the study,D54 human glioma tumors; Ad-PNP together with F-araAMP,"No limiting weight loss, animal deaths or other toxicities"
same,maximally tolerated dose,"[2]; given 5 times daily for 3 consecutive days, mice",100 mg/kg
same,MTD in mice bearing tumors that express E. coli PNP,[2],not reduced
same,duration of regressions,"[6]; 100% of cells expressed E. coli PNP (MuLv), tumors subsequently escape",~30 days
same,bystander killing in vivo,[6]; F-araAMP following E. coli PNP transduction with MuLv,little or no bystander killing
same,animal longevity,[7],improved animal longevity
same,toxicity as judged by weight loss or lethality,[7],have not indicated significant toxicity
same,anti-tumor effect vs non-treatment groups,"[8]; 2.5%, 5%, 10% PNP transduced cells, 100 mg/kg q2h x5, q1d x3, p<0.001",significantly different from non-treatment groups
same,anti-tumor effect vs non-treatment group,"[8]; 5% PNP expressing cells, 2 different schedules, p<0.001",significantly different from non-treatment group
same,anti-tumor effect vs non-treatment group,"[8]; 10% PNP cells, 100, 50 or 25 mg/kg q2h x5, q1d x3 days, p<0.001, efficacy greater at 100 mg/kg",significantly different from non-treatment group
same,tolerability during tumor regressions,"[8]; 100% PNP tumors, F-araAMP MTD or half MTD",without excessive weight loss or other undesired sequelae
same,complete regression and cures of tumors,"[8]; 100% of cells express PNP, F-araAMP 3 day schedule, MTD (100 mg/kg) or half the MTD, six animals per group",12 of 12 and cured of their tumors
same,anti-tumor effects at low proportion of PNP cells,[8]; as few as 2.5% of tumor cells express PNP,Anti-tumor effects are observed
Ad-PNP,PNP activity in tumor extracts,"D54 human glioma tumors; two days after vector administration, 2x10^9 PFU",approximately 5000 PNP units
E. coli PNP (Escherichia coli K-12),Km,[9],960 µM
same,Vmax,[9],0.0983 µmol/min/mg
same,Km,[10],22 µM
same,Vmax,[10],7.08 µmol/min/mg
same,Km,[11],125 µM
same,Vmax,[11],24.3 µmol/min/mg

# Source: patent US20100151572A1, “ANTI-TUMORAL COMPOSITIONS METHODS” (priority 2005, published 2010)
